Target: T1, CCR2 (Homo sapiens, UniProt P41597)
T1 construct: host or cells: THP-1 human monocytic cells
Assay: MCP-1 Receptor Binding Assay in THP-1 Cells (125I-MCP-1 displacement)
Details: 0.5 nM 125I labeled MCP-1, 2 hours at 30° C., read-out: CCR2 Binding, Inhibition of MCP-1 Binding IC50
Method: Compounds of the invention were subjected to various representative biological tests. The results of these tests are intended to illustrate the invention in a non-limiting fashion. MCP-1 Receptor Binding Assay in THP-1 Cells
Human monocytic cell line THP-1 cells were obtained from American Type Culture Collection (Manassas, Va., USA). The THP-1 cells were grown in RPMI-1640 (RPMI: Roswell Park Memorial Institute Medium-cell culture growth media) supplemented with 10% fetal bovine serum in a humidified 5% CO2 atmosphere at 37° C. The cell density was maintained […].
THP-1 (cells were incubated with 0.5 nM ^125I labeled MCP-1 (Perkin-Elmer Life Sciences, Inc. Boston, Mass.) in the presence of varying concentrations of either unlabeled MCP-1 (R & D Systems, Minneapolis, Minn.) or test compound for 2 hours at 30° C. in a 96 well plate. Cells were then harvested onto a filter plate, dried, and 20 μL of Microscint 20 was added to each well. Plates were counted in a TopCount NXT, Microplate Scintillation & Luminescence Counter (Perkin-Elmer Life Sciences, Inc. Boston, Mass.). Blank values (buffer only) were subtracted from all values and drug treated values were compared to vehicle treated values. 1 μM cold MCP-1 was used for nonspecific binding.
Table 1 lists IC50 values for inhibition of MCP-1 binding to CCR2 obtained for test compounds of the invention. Where an IC50 value was not obtained for a particular compound, the percent inhibition is provided at a test concentration of 25 μM.

T1 sequence (P41597 whole entry): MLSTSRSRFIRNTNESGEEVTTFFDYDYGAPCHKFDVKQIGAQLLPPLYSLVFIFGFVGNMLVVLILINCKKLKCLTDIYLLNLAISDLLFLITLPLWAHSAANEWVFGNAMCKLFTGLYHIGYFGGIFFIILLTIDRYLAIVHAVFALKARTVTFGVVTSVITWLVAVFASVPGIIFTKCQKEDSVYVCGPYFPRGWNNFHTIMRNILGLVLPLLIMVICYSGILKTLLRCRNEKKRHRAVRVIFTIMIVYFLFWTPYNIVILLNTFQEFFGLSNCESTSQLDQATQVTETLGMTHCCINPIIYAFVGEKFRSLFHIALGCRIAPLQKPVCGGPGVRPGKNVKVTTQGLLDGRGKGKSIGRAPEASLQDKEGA

| IC50 [µM] | Compound |
| --- | --- |
| 1.1 | O=C(CNC(=O)c1cccc(C(F)(F)F)c1)NC1CN(C2CCC(n3cc(Cl)ccc3=O)CC2)C1 (single isomer, unassigned) [Example 22a, N-({1-[4-(2-Oxo-5-chloro-2H-pyridin-1-yl)-cyclohexyl]-azetidin-3-ylcarbamoyl}-methyl)-3-trifluoromethyl-benzamide] |
| 0.34 | O=C(CNC(=O)c1cccc(C(F)(F)F)c1)NC1CN(C2CCC(Oc3noc4ccccc34)CC2)C1 (single isomer, unassigned) [Example 25a, N-({1-[4-(Benzo[d]isoxazol-3-yloxy)-cyclohexyl]azetidin-3-ylcarbamoyl}-methyl)-3-trifluoromethyl-benzamide] |
| 0.088 | C#Cc1cnn(C2CCC(N3CC(NC(=O)CNC(=O)c4cccc(C(F)(F)F)c4)C3)CC2)c1 (single isomer, unassigned) [Example 30a, N-({1-[4-(4-Ethynyl-pyrazol-1-yl)-cyclohexyl]-azetidin-3-ylcarbamoyl}-methyl)-3-trifluoromethyl-benzamide] |
| 0.51 | O=C(CNC(=O)c1cccc(C(F)(F)F)c1)NC1CN(C2CCC(n3ncc4ccccc43)CC2)C1 (single isomer, unassigned) [Example 32a, N-{[1-(4-Indazol-1-yl-cyclohexyl)-azetidin-3-ylcarbamoyl]-methyl}-3-trifluoromethyl-benzamide] |
| 0.29 | O=C(CNC(=O)c1cccc(C(F)(F)F)c1)NC1CN(C2CCC(Oc3nsc4ccccc34)CC2)C1 (single isomer, unassigned) [Example 34a, N-({1-[4-(Benzo[d]isothiazol-3-yloxy)-cyclohexyl]-azetidin-3-ylcarbamoyl}-methyl)-3-trifluoromethyl-benzamide] |
| 0.92 | O=C(CNC(=O)c1cccc(C(F)(F)F)c1)NC1CN(C2CCC3(CC2)OC(=O)c2ccccc23)C1 (single isomer, unassigned) [Example 38a] |
| 2.2 | O=C(CNC(=O)c1cccc(C(F)(F)F)c1)NC1CN(C2CCC3(CC2)OC(=O)Nc2ccccc23)C1 (single isomer, unassigned) [Example 40a] |
| 2.2 | O=C(CNC(=O)c1cccc(C(F)(F)F)c1)NC1CN(C2CCC(n3cc(Br)cnc3=O)CC2)C1 (centres unmarked) [Example 3, N-({1-[4-(5-Bromo-2-oxo-2H-pyrimidin-1-yl)-cyclohexyl]-azetidin-3-ylcarbamoyl}-methyl)-3-trifluoromethyl-benzamide] |
| 5.9 | O=C(CNC(=O)c1cccc(C(F)(F)F)c1)NC1CN(C2CCC(n3cccnc3=O)CC2)C1 (centres unmarked) [Example 4, N-({1-[4-(2-Oxo-2H-pyrimidin-1-yl)-cyclohexyl]-azetidin-3-ylcarbamoyl}-methyl)-3-trifluoromethyl-benzamide] |
| 1.6 | C#Cc1ccc(=O)n(C2CCC(N3CC(NC(=O)CNC(=O)c4cccc(C(F)(F)F)c4)C3)CC2)c1 (centres unmarked) [Example 9, N-({1-[4-(5-Ethynyl-2-oxo-2H-pyridin-1-yl)-cyclohexyl]-azetidin-3-ylcarbamoyl}-methyl)-3-trifluoromethyl-benzamide] |
| 1 | N#Cc1ccc(=O)n(C2CCC(N3CC(NC(=O)CNC(=O)c4cccc(C(F)(F)F)c4)C3)CC2)c1 (centres unmarked) [Example 10, N-({1-[4-(5-Cyano-2-oxo-2H-pyridin-1-yl)-cyclohexyl]-azetidin-3-ylcarbamoyl}-methyl)-3-trifluoromethyl-benzamide] |
| 0.28 | COc1cccnc1OC1CCC(N2CC(NC(=O)CNC(=O)c3cccc(C(F)(F)F)c3)C2)CC1 (centres unmarked) [Example 14, N-({1-[4-(3-Methoxy-pyridin-2-yloxy)-cyclohexyl]-azetidin-3-ylcarbamoyl}-methyl)-3-trifluoromethyl-benzamide] |
| 0.11 | Cc1ccn(C2CCC(N3CC(NC(=O)CNC(=O)c4cccc(C(F)(F)F)c4)C3)CC2)c(=O)c1 (centres unmarked) [Example 20, N-({1-[4-(4-Methyl-2-oxo-2H-pyridin-1-yl)-cyclohexyl]-azetidin-3-ylcarbamoyl}-methyl)-3-trifluoromethyl-benzamide] |
| 0.11 | O=C(CNC(=O)c1cccc(C(F)(F)F)c1)NC1CN(C2CCC(n3cc(I)cn3)CC2)C1 (centres unmarked) [Example 28, N-({1-[4-(4-Iodo-pyrazol-1-yl)-cyclohexyl]-azetidin-3-ylcarbamoyl}-methyl)-3-trifluoromethyl-benzamide] |
| 0.43 | O=C(CNC(=O)c1cccc(C(F)(F)F)c1)NC1CN(C2CCC(NC(=O)c3ccc4c(c3)OCO4)CC2)C1 (centres unmarked) [Example 35, Benzo[1,3]dioxole-5-carboxylic acid (4-{3-[2-(3-trifluoromethyl-benzoylamino)-acetylamino]-azetidin-1-yl}-cyclohexyl)-amide] |
| 9 | Cc1ccc(C)n1C1CCC(N2CC(NC(=O)CNC(=O)c3cccc(C(F)(F)F)c3)C2)CC1 (centres unmarked) [Example 37, N-({1-[4-(2,5-Dimethyl-pyrrol-1-yl)-cyclohexyl]-azetidin-3-ylcarbamoyl}-methyl)-3-trifluoromethyl-benzamide] |

Second part, the compound before the results:

| Compound | IC50 [µM] |
| --- | --- |
| O=C(CNC(=O)c1cccc(C(F)(F)F)c1)NC1CN(C2CCC(N3C(=O)c4ccccc4C3=O)CC2)C1 (single isomer, unassigned) [Example 24a, N-({1-[4-(1,3-Dioxo-1,3-dihydro-isoindol-2-yl)-cyclohexyl]-azetidin-3-ylcarbamoyl}-methyl)-3-trifluoromethyl-benzamide] | 0.68 |
| O=C(CNC(=O)c1cccc(C(F)(F)F)c1)NC1CN(C2CCC(n3oc4ccccc4c3=O)CC2)C1 (single isomer, unassigned) [Example 26a, N-({1-[4-(3-Oxo-3H-benzo[d]isoxazol-2-yl)-cyclohexyl]-azetidin-3-ylcarbamoyl}-methyl)-3-trifluoromethyl-benzamide] | 0.095 |
| Cc1cnn(C2CCC(N3CC(NC(=O)CNC(=O)c4cccc(C(F)(F)F)c4)C3)CC2)c1 (single isomer, unassigned) [Example 27a, N-({1-[4-(4-Methyl-pyrazol-1-yl)-cyclohexyl]-azetidin-3-ylcarbamoyl}-methyl)-3-trifluoromethyl-benzamide] | 0.17 |
| C[Si](C)(C)C#Cc1cnn(C2CCC(N3CC(NC(=O)CNC(=O)c4cccc(C(F)(F)F)c4)C3)CC2)c1 (single isomer, unassigned) [Example 29a, 3-Trifluoromethyl-N-({1-[4-(4-trimethylsilanylethynyl-pyrazol-1-yl)-cyclohexyl]-azetidin-3-ylcarbamoyl}-methyl)-benzamide] | 0.021 |
| O=C(CNC(=O)c1cccc(C(F)(F)F)c1)NC1CN(C2CCC(n3ccnc3)CC2)C1 (single isomer, unassigned) [Example 31a, N-{[1-(4-Imidazol-1-yl-cyclohexyl)-azetidin-3-ylcarbamoyl]-methyl}-3-trifluoromethyl-benzamide] | 0.34 |
| O=C(CNC(=O)c1cccc(C(F)(F)F)c1)NC1CN(C2CCC3(CC2)NC(=O)c2ccccc23)C1 (single isomer, unassigned) [Example 39a] | 1.5 |
| O=C(CNC(=O)c1cccc(C(F)(F)F)c1)NC1CN(C2CCC3(CC2)OCc2ccccc23)C1 (single isomer, unassigned) [Example 41a, N-[(1-3′H-Spiro[cyclohex-1,1′-isobenzofuran]-4-yl-azetidin-3-ylcarbamoyl)-methyl]-3-trifluoromethyl-benzamide] | 0.08 |
| Cc1ccc(=O)n(C2CCC(N3CC(NC(=O)CNC(=O)c4cccc(C(F)(F)F)c4)C3)CC2)c1 (centres unmarked) [Example 11, N-({1-[4-(5-Methyl-2-oxo-2H-pyridin-1-yl)-cyclohexyl]-azetidin-3-ylcarbamoyl}-methyl)-3-trifluoromethyl-benzamide] | 0.28 |
| O=C(CNC(=O)c1cccc(C(F)(F)F)c1)NC1CN(C2CCC(n3ccc(=O)cc3)CC2)C1 (centres unmarked) [Example 16, N-({1-[4-(4-Oxo-4H-pyridin-1-yl)-cyclohexyl]-azetidin-3-ylcarbamoyl}-methyl)-3-trifluoromethyl-benzamide] | 7.1 |
| Cc1ccnc(OC2CCC(N3CC(NC(=O)CNC(=O)c4cccc(C(F)(F)F)c4)C3)CC2)c1 (centres unmarked) [Example 19, N-({1-[4-(4-Methyl-pyridin-2-yloxy)-cyclohexyl]-azetidin-3-ylcarbamoyl}-methyl)-3-trifluoromethyl-benzamide] | 0.066 |
| O=C(CNC(=O)c1cccc(C(F)(F)F)c1)NC1CN(C2CCC(Oc3cccnn3)CC2)C1 (centres unmarked) [Example 23, N-({1-[4-(Pyridazin-3-yloxy)-cyclohexyl]-azetidin-3-ylcarbamoyl}-methyl)-3-trifluoromethyl-benzamide] | 0.41 |
| O=C(CNC(=O)c1cccc(C(F)(F)F)c1)NC1CN(C2CCC(Oc3ccc4c(c3)OCO4)CC2)C1 (centres unmarked) [Example 33, N-({1-[4-(Benzo[1,3]dioxol-5-yloxy)-cyclohexyl]-azetidin-3-ylcarbamoyl}-methyl)-3-trifluoromethyl-benzamide] | 0.41 |
| O=C(CNC(=O)c1cccc(C(F)(F)F)c1)NC1CN(C2CCC(NC(=O)Nc3ccc4c(c3)OCO4)CC2)C1 (centres unmarked) [Example 36, N-({1-[4-(3-Benzo[1,3]dioxol-5-yl-ureido)-cyclohexyl]-azetidin-3-ylcarbamoyl}-methyl)-3-trifluoromethyl-benzamide] | 1.5 |

— patent publication US8324186B2, “4-azetidinyl-1-heteroatom linked-cyclohexane antagonists of CCR2” (Janssen Pharmaceutica N.V., priority 2009, dated 2012)
